Laboratory results reported in PubChem BioAssay AID2060340 (Molecular Pharmacology Branch, DTP, NCI, 2025).
Where “and” joins values, the source holds several entries; their conditions need not be identical. Equal values may be shown once. Blank lines part the entries; values can stand above or below the compound they belong to.

Test system: 349418-098-R-PDC spheroids, viability, % test/control
Assay: Anticancer human tumor 349418-098-R-PDC patient-derived lung adenocarcinoma cell line growth inhibition [IpAb]
Conditions: spheroids with HUVEC and MSC; for viability, T/C: stronger effect = lower value
Outline: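 Spheroids of 60% malignant cells, 25% HUVEC and 15% MSC were exposed to targeted agents combined with ipatasertib or abemaciclib. Doses started at or near clinical Cmax (10 microM when unknown) and fell in half-log steps.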

[1] = curve of first compound, second compound 0.01 µM
[2] = curve of first compound, second compound 0.0316 µM
[3] = curve of first compound, second compound 0.1 µM
[4] = curve of first compound, second compound 0.316 µM
[5] = curve of first compound, second compound 1 µM
[6] = second compound 0.01 µM, first compound 0.0316 µM
[7] = second compound 0.01 µM, first compound 0.1 µM
[8] = second compound 0.01 µM, first compound 0.316 µM
[9] = second compound 0.01 µM, first compound 1 µM
[10] = second compound 0.01 µM, first compound 3.16 µM
[11] = second compound 0.01 µM, first compound 10 µM
[12] = second compound 0.0316 µM, first compound 0.0316 µM
[13] = second compound 0.0316 µM, first compound 0.1 µM
[14] = second compound 0.0316 µM, first compound 0.316 µM
[15] = second compound 0.0316 µM, first compound 1 µM
[16] = second compound 0.0316 µM, first compound 3.16 µM
[17] = second compound 0.0316 µM, first compound 10 µM
[18] = second compound 0.1 µM, first compound 0.0316 µM
[19] = second compound 0.1 µM, first compound 0.1 µM
[20] = second compound 0.1 µM, first compound 0.316 µM
[21] = second compound 0.1 µM, first compound 1 µM
[22] = second compound 0.1 µM, first compound 3.16 µM
[23] = second compound 0.1 µM, first compound 10 µM
[24] = second compound 0.316 µM, first compound 0.0316 µM
[25] = second compound 0.316 µM, first compound 0.1 µM
[26] = second compound 0.316 µM, first compound 0.316 µM
[27] = second compound 0.316 µM, first compound 1 µM
[28] = second compound 0.316 µM, first compound 3.16 µM
[29] = second compound 0.316 µM, first compound 10 µM
[30] = second compound 1 µM, first compound 0.0316 µM
[31] = second compound 1 µM, first compound 0.1 µM
[32] = second compound 1 µM, first compound 0.316 µM
[33] = second compound 1 µM, first compound 1 µM
[34] = second compound 1 µM, first compound 3.16 µM
[35] = second compound 1 µM, first compound 10 µM

IC50 (curve of compound): 9.02 nM and 12.1 nM
Compound: COc1c(OCCCN2CCOCC2)ccc2c3n(c(=NC(=O)c4cnc(N)nc4)nc12)CCN3
viability, T/C (compound 0.00316 µM): 98.7% and 85.4%
viability, T/C (compound 0.01 µM): 45.2% and 56.9%
viability, T/C (compound 0.0316 µM): 11.5% and 15.2%
viability, T/C (compound 0.1 µM): 7.98% and 6.59%
viability, T/C (compound 0.316 µM): 7.2% and 6.31%
viability, T/C (compound 1 µM): 6.67% and 5.78%

Compound: CC1(C)CCC(CN2CCN(c3ccc(C(=O)NS(=O)(=O)c4ccc(NCC5CCOCC5)c([N+](=O)[O-])c4)c(Oc4cnc5[nH]ccc5c4)c3)CC2)=C(c2ccc(Cl)cc2)C1 + CCN1CCN(Cc2ccc(Nc3ncc(F)c(-c4cc(F)c5nc(C)n(C(C)C)c5c4)n3)nc2)CC1
IC50 [1]: 1810 nM
IC50 [2]: 1640 nM
IC50 [3]: < 31.6 nM
IC50 [4]: < 31.6 nM
IC50 [5]: < 31.6 nM
viability, T/C [6]: 102%
viability, T/C [7]: 75%
viability, T/C [8]: 68.5%
viability, T/C [9]: 67.8%
viability, T/C [10]: 42.9%
viability, T/C [11]: 6.47%
viability, T/C [12]: 60.8%
viability, T/C [13]: 56.1%
viability, T/C [14]: 52.5%
viability, T/C [15]: 55.4%
viability, T/C [16]: 44.1%
viability, T/C [17]: 6.96%
viability, T/C [18]: 29.8%
viability, T/C [19]: 32.8%
viability, T/C [20]: 29%
viability, T/C [21]: 26.3%
viability, T/C [22]: 24.2%
viability, T/C [23]: 6.59%
viability, T/C [24]: 20.6%
viability, T/C [25]: 19.6%
viability, T/C [26]: 21.5%
viability, T/C [27]: 18.6%
viability, T/C [28]: 20.6%
viability, T/C [29]: 4.86%
viability, T/C [30]: 16.7%
viability, T/C [31]: 18.6%
viability, T/C [32]: 16%
viability, T/C [33]: 17.9%
viability, T/C [34]: 17%
viability, T/C [35]: 4.09%

Compound: C=CCn1c(=O)c2cnc(Nc3ccc(N4CCN(C)CC4)cc3)nc2n1-c1cccc(C(C)(C)O)n1 + CCN1CCN(Cc2ccc(Nc3ncc(F)c(-c4cc(F)c5nc(C)n(C(C)C)c5c4)n3)nc2)CC1
IC50 [1]: 164 nM
IC50 [2]: 101 nM
IC50 [3]: < 31.6 nM
IC50 [4]: < 31.6 nM
IC50 [5]: < 31.6 nM
viability, T/C [6]: 78.5%
viability, T/C [7]: 76.4%
viability, T/C [8]: 15.1%
viability, T/C [9]: 5.22%
viability, T/C [10]: 4.65%
viability, T/C [11]: 5.36%
viability, T/C [12]: 65.1%
viability, T/C [13]: 50.2%
viability, T/C [14]: 13.4%
viability, T/C [15]: 6.17%
viability, T/C [16]: 4.95%
viability, T/C [17]: 4.75%
viability, T/C [18]: 38.4%
viability, T/C [19]: 30%
viability, T/C [20]: 13.3%
viability, T/C [21]: 7%
viability, T/C [22]: 6.21%
viability, T/C [23]: 5.25%
viability, T/C [24]: 23.6%
viability, T/C [25]: 20.2%
viability, T/C [26]: 14.4%
viability, T/C [27]: 10%
viability, T/C [28]: 7.67%
viability, T/C [29]: 6.46%
viability, T/C [30]: 17.9%
viability, T/C [31]: 15.5%
viability, T/C [32]: 11.4%
viability, T/C [33]: 9.92%
viability, T/C [34]: 6.96%
viability, T/C [35]: 5.12%
